Entries after “also recorded” stand apart in the source; their conditions may differ. Blank lines part the entries; values can stand above or below the compound they belong to. Ends that are not written are not given here.
How the values were obtained:
561 antibody [1] = experiment: Chemical reagents as enhancers of peptide-dependent release of CD34+ cells from the 561 antibody (FACS assay); type: cell-based
Description: The ability of chemical reagents to enhance peptide-dependant release of captured CD34+ cells from the 561 antibody was examined. […] Since long-term viability of the low pH-released cells was not known, conditions which could alter the pH to a more neutral value (about pH5-7) were desirable.
Reagents which were known to affect electrostatic and hydrogen bonding interactions of proteins were tested in addition to excluded-volume polymers. Included in these studies were sodium chloride, sodium acetate, magnesium chloride, calcium chloride, polyethylene glycol (PEG), ficoll, sodium succinate, sodium citrate, protamine sulphate, spermine, and polybrene.

561 antibody [2] = experiment: KG1a or tHL60 cell-based FACS assay: release of prebound 561 antibody; type: binding
From the text: Five peptides representing hexapeptides selected from biopannings were synthesized and tested for their ability to serve as release agents in the KG1a or tHL60 cell-based FACS assay.
The peptides (see Table 27 below) were synthesized by Research Genetics and tested without purification. The 9069 antibody was used as a positive control and released with the 9069N peptide (Ac-Q Q G W F P-K D) (SEQ ID NO:9). This control served to test for the KG1a cells and the goat-anti-mouse FITC secondary detection antibody. Hexapeptide sequences identified for the 561 antibody were tested for their ability to displace prebound 561 antibody.
HPLC-purified peptides 561C and D were tested in the cell-based KG1a FACS assay.
Functional release activity of purified 561D peptide at pH 4 and 6 was tested.
Functional release activity of purified 561C and 561D peptides at pH 4, 5, 6, 7, 8, and 9 was tested.
Functional release activity of crude 561A,B,C,D, M, P, Q, CDR2H, CDR2L, CDR3H, CDR3L, 34B, 34C,34D,34E and 34F peptides adjusted to pH 7 and pH unadjusted (~pH3.8-4.3) was tested.

anti-CD34 antibody, 9069 = experiment: KG1a cell FACS assay: release by peptides of 9069 antibody prebound to cells; type: binding, mouse; conditions: peptide added to KG1a cells with prebound 9069; 10^5 to 10^6 molar excess, 30 min, room temperature
Description: These experiments were performed following a similar procedure to the binding experiments except that the anti-CD34 antibody, 9069, was incubated with KG1a cells first, followed by addition of peptide. The experimental outline is schematically shown below:
KG1a Cell Assay to Test for Release by Peptides of 9069 Antibody Bound to Cells.
Anti-CD34 antibody, 9069 (0.i microgram) was incubated with KG1a cells (10^6) for 30 minutes at room temperature (about 22° C.). Molar excesses of 10^5 to 10^6 times the amount of peptide to antibody were tested for the ability to displace the prebound antibody. Peptides were incubated with the antibody-cell complexes for 30 minutes at room temperature (approximately 22° C.). Remaining bound antibody was detected using the FITC-goat anti-mouse IgG reagent described in Example 3.
Analysis of the variant peptide, 9069Q2, was done in parallel with the 9069N peptide. This analysis provides quality control information on reagents including the antibody, 9069, and the cells, KG1a. FACScan assays included a negative control of KG1a cells alone and positive control samples of KG1a cells with the 9069 antibody bound and detected with a secondary antibody, goat-anti-mouse IgG-FITC.

CD34 cells = experiment: Stem cell selection with 9069 antibody, sheep-anti-mouse beads and releasing agent; type: cell-based, human; conditions: chymopapain release
CD34+ cells = experiment: CD34+ cell isolation on automated cell separation apparatus, then culture with cytokines; type: cell-based, human
Description: CD34+ cells were also isolated from human mobilized peripheral blood using the automated cell separation apparatus described in U.S. Pat. No. 5,536,475 and the method essentially as described in WO 95/24969 Both U.S. Pat. No. 5,536,475 and WO 95/24969 are herein expressly incorporated by reference. Chymopapain was used as the control releasing agent, and 25 mg of the peptide 9069N (Table 11) was used as the test releasing agent.

[3] = Solubilization of peptides in DPBS plus 1% HSA; type: physicochemical
From the text: 9079A-G peptides were solubilized in Dulbecco's phosphate buffered saline (DPBS) plus 1% HSA.

[4] = crude peptide, pH unadjusted (around pH 3.8-4.3; low pH ~4)
[5] = Table 7, mobilized peripheral blood (5.86% CD34 start)
[6] = Table 10, mobilized peripheral blood (0.68% CD34 start)

Compound: [Cl-].[Cl-].[Mg+2] [magnesium chlordie, magnesium chloride]
enhancement of peptide mediated release of CD34+ selected cells (561 antibody [1]): Less dramatic results

Compound: CC(=O)[O-].[Na+] [sodium acetate]
enhancement of peptide mediated release of CD34+ selected cells (561 antibody [1]): significant activity as an enhancement reagent

Compound: A C K W C R (ACKWCR) [Peptide 561M]
release activity on prebound 561 antibody (561 antibody [2]; crude peptide, pH 7): none of these peptides showed release activity; also recorded: did not show release activity
release activity on prebound 561 antibody (561 antibody [2]; [4]): showed functional release activity; also recorded: showed significant release activity
release of 561 antibody prebound to KG1a or tHL60 cells (in words) (561 antibody [2]; crude peptides, pH not stated): able to release 561 antibody prebound to KG1a or tHL60 cells
release activity on prebound 561 antibody (561 antibody [2]; pH 6): did not show release activity

Compound: A D G A-L I S Q V S-Q A K D (ADGALISQVSQAKD) [Peptide 9069C]
% Inhibition of Binding (anti-CD34 antibody, 9069): 32%

Compound: A I Y P G D G D T R Y T Q K F V V (AIYPGDGDTRYTQKFVV) [Peptide 561CDR2H]
release activity on prebound 561 antibody (561 antibody [2]; crude peptide, pH 7): none of these peptides showed release activity; also recorded: did not show release activity
release activity on prebound 561 antibody (561 antibody [2]; [4]): showed functional release activity; also recorded: showed significant release activity
release activity on prebound 561 antibody (561 antibody [2]; pH 6): did not show release activity

Compound: Chymopapain
% CD34 CELLS Negative Fraction (CD34 cells; [5]): 2.5%
% CD34 CELLS Positive Fraction (CD34 cells; [5]): 94%
% Capture (CD34 cells; [5]): 62%
% CD34 CELLS Negative Fraction (CD34 cells; Table 8, mobilized peripheral blood (1.05% CD34 start)): 0.16%
% CD34 CELLS Negative Fraction (CD34 cells; Table 9, bone marrow (3.66% CD34 start)): 0.34%
% CD34 CELLS Negative Fraction (CD34 cells; [6]): 0.12%
% Yield (CD34 cells; [6]): 68%
purity of the positively selected CD34+ cells (CD34+ cells; mobilized peripheral blood, 25 mg peptide 9069N or chymopapain control): greater than 90%
expansion in cell number (CD34+ cells; released CD34+ cells of first experiment, culture with cytokines for 12 days): 68 fold

solubility [3]: solubilized
Compound: IQEFGVKD [Peptide 9079F, IQEFGV--KD]

solubility [3]: solubilized
Compound: KDVYSLWPKD [Peptide 9079H, KD--VYSLWP--KD]

solubility [3]: solubilized
Compound: NLQGEFKD [Peptide 9079D, NLQGEF--KD]

solubility [3]: solubilized
Compound: PGSPLGKD [Peptide 9079A, PGSPLG--KD]

solubility [3]: solubilized
Compound: QYTQPKD [Peptide 9079C, QYTQPK--D]

solubility [3]: insoluble
Compound: RSFYYRD [Peptide 9079E, RSFYYR--D]

solubility [3]: solubilized
Compound: YSRLGFKD [Peptide 9079B, YSRLGF--KD]
